In patent US20240124417A1, “COMPOUNDS USEFUL AS IMMUNOMODULATORS” (Bristol-Myers Squibb Company, priority 2019, published 2024):

Molecular target: T1, PD-1/PD-L1 (Homo sapiens, UniProt Q9NZQ7)
T1 construct: TVMV protease site linker (C); made in house; host or cells: HEK293T cells
Experiment: PD-1/PD-L1 Homogenous Time-Resolved Fluorescence (HTRF) binding assay
Details: PD-L1-His 10 nM, PD-1-Ig 20 nM
Excerpt: The ability of the compounds of the invention to bind to PD-L1 was investigated using a PD-1/PD-L1 Homogenous Time-Resolved Fluorescence (HTRF) binding assay.
Homogenous Time-Resolved Fluorescence (HTRF) binding assay.
The interaction of PD-1 and PD-L1 can be assessed using soluble, purified preparations of the extracellular domains of the two proteins. The PD-1 and PD-L1 protein extracellular domains were expressed as fusion proteins with detection tags, for PD-1, the tag was the Fc portion of Immunoglobulin (PD-1-Ig) and for PD-L1 it was the 6 histidine motif (PD-L1-His). All binding studies were performed in an HTRF assay buffer consisting of dPBS supplemented with 0.1% […] bovine serum albumin and 0.05% (v/v) Tween-20. For the h/PD-L1-His binding assay, inhibitors were pre-incubated with PD-L1-His (10 nM final) for 15 m in 4 μl of assay buffer, followed by addition of PD-1-Ig (20 nM final) in 1 μl of assay buffer and further incubation for 15 m. HTRF detection was achieved using europium crypate-labeled anti-Ig (1 nM final) and allophycocyanin (APC) labeled anti-His (20 nM final). Antibodies were diluted in HTRF detection buffer and 5 μl was dispensed on top of the binding reaction. […] Additional binding assays were established between the human proteins PD-1-Ig/PD-L2-His (20 & 5 nM, respectively) and CD80-His/PD-L1-Ig (100 & 10 nM, respectively). […]

T1 sequence (Q9NZQ7 18-239): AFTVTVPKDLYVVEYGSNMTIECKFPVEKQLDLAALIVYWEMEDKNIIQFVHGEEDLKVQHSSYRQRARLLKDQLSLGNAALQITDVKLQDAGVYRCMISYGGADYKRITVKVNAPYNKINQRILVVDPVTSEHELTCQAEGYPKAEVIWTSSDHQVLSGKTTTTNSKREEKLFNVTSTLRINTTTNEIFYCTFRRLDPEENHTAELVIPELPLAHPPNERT

Structure (SMILES) | IC50 [nM]
Cc1c(COc2cc(OCc3cncc(C#N)c3)c(CNCc3nc4ccccc4s3)cc2Cl)cccc1-c1cccc(OCC2CCCN(C)C2)c1Cl (centres unmarked) [Example 2611, 5-((2-(((benzo[d]thiazol-2-ylmethyl)amino)methyl)-4-chloro-5-((2′-chloro-2-methyl-3′-((1-methylpiperidin-3-yl)methoxy)-[1,1′-biphenyl]-3-yl)methoxy)phenoxy)methyl)nicotinonitrile] | 5.9
Cc1c(COc2cc(OCc3cncc(C#N)c3)c(CNCCc3nnnn3C)cc2Cl)cccc1-c1cccc(OCCCN2CC[C@@H](O)C2)c1C [Example 1014, (R)-5-((4-Chloro-5-((3′-(3-(3-hydroxypyrrolidin-1-yl)propoxy)-2,2′-dimethyl-[1,1′-biphenyl]-3-yl)methoxy)-2-(((2-(1-methyl-1H-tetrazol-5-yl)ethyl)amino)methyl)-phenoxy)methyl)nicotinonitrile] | 2.9
CC(=O)NC1CCN(CCCOc2cccc(-c3cccc(COc4cc(OCc5cncc(C#N)c5)c(CN5CCCCC5c5cn[nH]c5)cc4Cl)c3C)c2Cl)CC1 (centres unmarked) [Example 1059, N-(1-(3-((3′-((4-((2-(1H-Pyrazol-4-yl)piperidin-1-yl)methyl)-2-chloro-5-((5-cyano-pyridin-3-yl)methoxy)phenoxy)methyl)-2-chloro-2′-methyl-[1,1′-biphenyl]-3-yl)oxy)-propyl)piperidin-4-yl)acetamide] | 3.6
Cc1c(COc2cc(OCc3cccnn3)c(CNCc3cn[nH]c3)cc2Cl)cccc1-c1cccc(OCC2CCCN(C)C2)c1Cl (centres unmarked) [Example 2054, N-((1H-pyrazol-4-yl)methyl)-1-(5-chloro-4-((2′-chloro-2-methyl-3′-((1-methylpiperidin-3-yl)methoxy)-[1,1′-biphenyl]-3-yl)methoxy)-2-(pyridazin-3-ylmethoxy)phenyl)methanamine] | 5.6
Cc1c(COc2cc(OCc3cncc(C#N)c3)c(CNCc3cccnn3)cc2Cl)cccc1-c1cccc(OCC2CCCN(CCC(F)(F)F)C2)c1Cl (centres unmarked) [Example 2064, 5-((4-chloro-5-((2′-chloro-2-methyl-3′-((1-(3,3,3-trifluoropropyl)piperidin-3-yl)methoxy)-[1,1′-biphenyl]-3-yl)methoxy)-2-(((pyridazin-3-ylmethyl)amino)methyl)phenoxy)methyl)nicotinonitrile] | 179
Cc1c(COc2cc(OCc3cncc(C#N)c3)c(CNCCc3c[nH]cn3)cc2Cl)cccc1-c1cccc(OCCCN2CC[C@@H](O)C2)c1C [Example 2532, (R)-5-((2-(((2-(1H-imidazol-4-yl)ethyl)amino)methyl)-4-chloro-5-((3′-(3-(3-hydroxypyrrolidin-1-yl)propoxy)-2,2′-dimethyl-[1,1′-biphenyl]-3-yl)methoxy)phenoxy)methyl)nicotinonitrile] | 4.8
Cc1c(COc2cc(OCc3cnccn3)c(CNCc3ncccn3)cc2Cl)cccc1-c1cccc(OCC2CCCN(C)C2)c1Cl (centres unmarked) [Example 2059, N-(5-chloro-4-((2′-chloro-2-methyl-3′-((1-methylpiperidin-3-yl)methoxy)-[1,1′-biphenyl]-3-yl)methoxy)-2-(pyrazin-2-ylmethoxy)benzyl)-1-(pyrimidin-2-yl)methanamine] | 4.4
Cc1c(COc2cc(OCc3cncc(C#N)c3)c(CNCc3ncn[nH]3)cc2Cl)cccc1-c1cccc(OCCCN2CC[C@@H](O)C2)c1C [Example 2002, (R)-5-((2-((((1H-1,2,4-triazol-5-yl)methyl)amino)methyl)-4-chloro-5-((3′-(3-(3-hydroxypyrrolidin-1-yl)propoxy)-2,2′-dimethyl-[1,1′-biphenyl]-3-yl)methoxy)phenoxy)methyl)nicotinonitrile] | 9.3
Cc1c(COc2cc(OCc3cncc(C#N)c3)c(CNCc3nccs3)cc2Cl)cccc1-c1cccc(OCCCN2CC[C@@H](O)C2)c1C [Example 2530, (R)-5-((4-chloro-5-((3′-(3-(3-hydroxypyrrolidin-1-yl)propoxy)-2,2′-dimethyl-[1,1′-biphenyl]-3-yl)methoxy)-2-(((thiazol-2-ylmethyl)amino)methyl)phenoxy)methyl)nicotinonitrile] | 6.2
Cc1c(COc2cc(OCc3cncc(C#N)c3)c(CN(C)Cc3ccnc(C#N)n3)cc2Cl)cccc1-c1cccc(OCCCN2CC[C@@H](O)C2)c1C [Example 2045, (R)-4-(((5-chloro-2-((5-cyanopyridin-3-yl)methoxy)-4-((3′-(3-(3-hydroxypyrrolidin-1-yl)propoxy)-2,2′-dimethyl-[1,1′-biphenyl]-3-yl)methoxy)benzyl) (methyl)amino)methyl)pyrimidine-2-carbonitrile] | 16.4

These reach a lower IC50. Values come first.

IC50 [nM] | Structure (SMILES)
0.7 | Cc1c(COc2cc(OCc3cncc(C#N)c3)c(CNCc3cocn3)cc2Cl)cccc1-c1cccc(OCCCN2CC[C@@H](O)C2)c1C [Example 2539, (R)-5-((4-chloro-5-((3′-(3-(3-hydroxypyrrolidin-1-yl)propoxy)-2,2′-dimethyl-[1,1′-biphenyl]-3-yl)methoxy)-2-(((oxazol-4-ylmethyl)amino)methyl)phenoxy)methyl)nicotinonitrile]
1.6 | Cc1c(COc2cc(OCc3cncc(C#N)c3)c(CNCc3cc4ccccn4n3)cc2Cl)cccc1-c1cccc(OCC2CCCN(C)C2)c1Cl (centres unmarked) [Example 2602, 5-((4-chloro-5-((2′-chloro-2-methyl-3′-((1-methylpiperidin-3-yl)methoxy)-[1,1′-biphenyl]-3-yl)methoxy)-2-(((pyrazolo[1,5-a]pyridin-2-ylmethyl)amino)methyl)phenoxy)methyl)nicotinonitrile]
0.7 | CC(=O)NC1CCN(CCCOc2cccc(-c3cccc(COc4cc(OCc5cncc(C#N)c5)c(CNCc5nnn[nH]5)cc4Cl)c3C)c2Cl)CC1 [Example 1057, N-(1-(3-((3′-((4-((((1H-Tetrazol-5-yl)methyl)amino)methyl)-2-chloro-5-((5-cyano-pyridin-3-yl)methoxy)phenoxy)methyl)-2-chloro-2′-methyl-[1,1′-biphenyl]-3-yl)oxy)-propyl)piperidin-4-yl)acetamide]
0.6 | Cc1c(COc2cc(OCc3cncc(C#N)c3)c(CNCCc3nc4ccccc4n3C)cc2Cl)cccc1-c1cccc(OCC2CCCN(C)C2)c1Cl (centres unmarked) [Example 2605, 5-((4-chloro-5-((2′-chloro-2-methyl-3′-((1-methylpiperidin-3-yl)methoxy)-[1,1′-biphenyl]-3-yl)methoxy)-2-(((2-(1-methyl-1H-benzo[d]imidazol-2-yl)ethyl)amino)methyl)phenoxy)methyl)nicotinonitrile]
1.1 | Cc1c(COc2cc(OCc3cncc(C#N)c3)c(CN(C)CCc3nn[nH]n3)cc2Cl)cccc1-c1cccc(OCCCN2CC[C@@H](O)C2)c1C [Example 1004, (R)-5-((2-(((2-(2H-Tetrazol-5-yl)ethyl)(methyl)amino)methyl)-4-chloro-5-((3′-(3-(3-hydroxypyrrolidin-1-yl)propoxy)-2,2′-dimethyl-[1,1′-biphenyl]-3-yl)methoxy)phenoxy)-methyl)nicotinonitrile]
0.5 | Cc1c(COc2cc(OCc3cncc(C#N)c3)c(CN3CCCCC3c3ncc[nH]3)cc2Cl)cccc1-c1cccc(OCCCN2CC[C@@H](O)C2)c1C (stereo partly drawn) [Example 1009, 5-((2-((2-(1H-Imidazol-2-yl)piperidin-1-yl)methyl)-4-chloro-5-((3′-(3-((R)-3-hydroxy-pyrrolidin-1-yl)propoxy)-2,2′-dimethyl-[1,1′-biphenyl]-3-yl)methoxy)phenoxy)methyl)-nicotinonitrile]
2.1 | Cc1c(COc2cc(OCc3cncc(C#N)c3)c(CNCc3c[nH]cn3)cc2Cl)cccc1-c1cccc(OCCCN2CCC(O)(CO)CC2)c1Cl [Example 2010, 5-((2-((((1H-imidazol-4-yl)methyl)amino)methyl)-4-chloro-5-((2′-chloro-3′-(3-(4-hydroxy-4-(hydroxymethyl)piperidin-1-yl)propoxy)-2-methyl-[1,1′-biphenyl]-3-yl)methoxy)phenoxy)methyl)nicotinonitrile]
0.6 | Cc1c[nH]c(CN(C)Cc2cc(Cl)c(OCc3cccc(-c4cccc(OCCCN5CC[C@@H](O)C5)c4C)c3C)cc2OCc2cncc(C#N)c2)n1 [Example 2024, (R)-5-((4-chloro-5-((3′-(3-(3-hydroxypyrrolidin-1-yl)propoxy)-2,2′-dimethyl-[1,1′-biphenyl]-3-yl)methoxy)-2-((methyl((4-methyl-1H-imidazol-2-yl)methyl)amino)methyl)phenoxy)methyl)nicotinonitrile]
0.4 | Cc1c(COc2cc(OCc3cncc(C#N)c3)c(CN(C)C(C)c3nnn[nH]3)cc2Cl)cccc1-c1cccc(OCCCNC[C@H](O)CO)c1Cl (stereo partly drawn) [Example 1034, 5-((2-(((1-(1H-Tetrazol-5-yl)ethyl)(methyl)amino)methyl)-4-chloro-5-((2′-chloro-3′-(3-(((S)-2,3-dihydroxypropyl)amino)propoxy)-2-methyl-[1,1′-biphenyl]-3-yl)methoxy)-phenoxy)methyl)-nicotinonitrile]
1.9 | Cc1c(COc2cc(OCc3cncc(C#N)c3)c(CNCc3cnco3)cc2Cl)cccc1-c1cccc(OCC2CCCN(C)C2)c1Cl (centres unmarked) [Example 2591, 5-((4-chloro-5-((2′-chloro-2-methyl-3′-((1-methylpiperidin-3-yl)methoxy)-[1,1′-biphenyl]-3-yl)methoxy)-2-(((oxazol-5-ylmethyl)amino)methyl)phenoxy)methyl)nicotinonitrile]
